Structures are written as SMILES. Where a name gives a salt, the structure may show the parent alone.

For assay [1], the target named is T1, HCN2 (Homo sapiens, UniProt Q9UL51).
T1 sequence (Q9UL51 1-889): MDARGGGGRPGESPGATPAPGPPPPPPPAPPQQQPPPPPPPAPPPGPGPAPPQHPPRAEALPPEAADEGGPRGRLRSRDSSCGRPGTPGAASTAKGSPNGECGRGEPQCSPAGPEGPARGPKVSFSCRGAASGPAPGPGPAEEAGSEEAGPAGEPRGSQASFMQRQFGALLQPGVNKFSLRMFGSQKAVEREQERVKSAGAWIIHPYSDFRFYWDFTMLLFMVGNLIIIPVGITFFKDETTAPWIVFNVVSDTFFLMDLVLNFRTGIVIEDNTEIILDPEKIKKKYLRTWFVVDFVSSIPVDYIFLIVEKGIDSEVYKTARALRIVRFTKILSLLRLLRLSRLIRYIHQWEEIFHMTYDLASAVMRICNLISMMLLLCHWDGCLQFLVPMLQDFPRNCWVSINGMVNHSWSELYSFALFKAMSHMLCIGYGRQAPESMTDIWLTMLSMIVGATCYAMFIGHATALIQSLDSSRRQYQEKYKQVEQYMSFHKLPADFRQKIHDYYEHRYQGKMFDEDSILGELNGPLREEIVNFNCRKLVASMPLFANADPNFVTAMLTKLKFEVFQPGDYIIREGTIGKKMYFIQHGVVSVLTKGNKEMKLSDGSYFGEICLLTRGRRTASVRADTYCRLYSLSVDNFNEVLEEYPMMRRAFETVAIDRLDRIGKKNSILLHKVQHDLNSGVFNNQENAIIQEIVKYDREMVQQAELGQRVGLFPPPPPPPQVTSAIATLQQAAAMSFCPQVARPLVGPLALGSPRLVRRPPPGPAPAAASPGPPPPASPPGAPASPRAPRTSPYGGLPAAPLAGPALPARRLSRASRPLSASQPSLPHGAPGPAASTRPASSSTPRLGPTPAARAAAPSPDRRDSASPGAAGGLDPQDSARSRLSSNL
The experiment in a line: HCN2 assay using the Sophion Qube (Example 50B). The format is cell-based. The conditions noted are these: Sophion Qube protocol (SQ). As to the method: Solutions for recording HCN currents were:
For HCN1 and HCN2 the cells were held at −30 mV and then stepped to −110 mV for 2 seconds before stepping back to −30 mV, this represents 1 experimental sweep. This voltage protocol was applied every 20 seconds for the duration of the experiment. Both the vehicle (0.3% DMSO) and full block (3 mM CsCl) addition periods were applied for 10 experimental sweeps each. The compound addition period was applied for 30 sweeps.
The currents evoked by the step to −110 mV (HCN1 and HCN2) or −130 mV (HCN4) were measured for the analysis of the percentage inhibition by test compounds. The current amplitudes were measured by subtracting metric A from metric B (see FIG. 2) with inhibition calculated by normalising to the vehicle addition (0.3% DMSO) and full inhibition by 3 mM CsCl in the same well.
In total, compound was applied to the well for 600 seconds.

Assay [2] concerns the target T2, HCN4 (Homo sapiens, UniProt Q9Y3Q4).
T2 sequence (Q9Y3Q4 1-1203): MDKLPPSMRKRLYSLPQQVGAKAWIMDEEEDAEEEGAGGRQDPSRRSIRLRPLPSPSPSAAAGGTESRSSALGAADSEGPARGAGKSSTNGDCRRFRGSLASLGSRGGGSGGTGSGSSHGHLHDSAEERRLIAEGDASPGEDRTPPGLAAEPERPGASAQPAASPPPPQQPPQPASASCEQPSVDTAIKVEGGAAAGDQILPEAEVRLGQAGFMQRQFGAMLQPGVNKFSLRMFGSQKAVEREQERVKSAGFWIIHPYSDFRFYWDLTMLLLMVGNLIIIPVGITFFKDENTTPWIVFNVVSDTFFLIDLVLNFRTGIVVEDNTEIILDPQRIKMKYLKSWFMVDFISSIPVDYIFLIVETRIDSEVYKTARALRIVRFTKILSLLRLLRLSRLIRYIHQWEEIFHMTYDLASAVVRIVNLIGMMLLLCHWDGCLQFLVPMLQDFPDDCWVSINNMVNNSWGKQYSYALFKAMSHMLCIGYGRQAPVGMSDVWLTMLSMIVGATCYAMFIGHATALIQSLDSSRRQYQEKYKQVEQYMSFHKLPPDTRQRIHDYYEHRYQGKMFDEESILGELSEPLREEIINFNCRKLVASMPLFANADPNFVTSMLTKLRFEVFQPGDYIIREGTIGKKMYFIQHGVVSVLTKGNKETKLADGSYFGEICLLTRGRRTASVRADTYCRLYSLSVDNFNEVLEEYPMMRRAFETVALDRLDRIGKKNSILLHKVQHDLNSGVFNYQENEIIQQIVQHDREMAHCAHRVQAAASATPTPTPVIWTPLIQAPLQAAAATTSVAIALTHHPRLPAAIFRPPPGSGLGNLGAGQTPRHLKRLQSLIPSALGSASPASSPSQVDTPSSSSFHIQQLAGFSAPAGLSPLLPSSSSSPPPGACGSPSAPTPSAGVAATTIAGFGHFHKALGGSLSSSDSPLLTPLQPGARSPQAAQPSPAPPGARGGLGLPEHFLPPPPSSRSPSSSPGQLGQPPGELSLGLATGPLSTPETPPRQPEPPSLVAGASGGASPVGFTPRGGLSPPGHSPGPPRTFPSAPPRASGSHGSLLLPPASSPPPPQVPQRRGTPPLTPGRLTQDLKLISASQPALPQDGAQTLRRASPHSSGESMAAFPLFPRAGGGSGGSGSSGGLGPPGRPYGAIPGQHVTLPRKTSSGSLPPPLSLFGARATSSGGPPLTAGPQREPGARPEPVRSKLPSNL
Put plainly: HCN4 assay using the Sophion Qube (Example 50B). The format is cell-based. The note with it: Sophion Qube protocol (SQ). The procedure: Solutions for recording HCN currents were: [table] For HCN4, the cells were held at −30 mV and then stepped to −130 mV for 4 seconds before stepping back to −30 mV, this represents 1 experimental sweep. This voltage protocol was applied every 20 seconds for the duration of the experiment. Both the vehicle (0.3% DMSO) and full block (3 mM CsCl) addition periods were applied for 10 experimental sweeps each. The compound addition period was applied for 30 sweeps. The currents evoked by the step to −110 mV (HCN1 and HCN2) or −130 mV (HCN4) were measured for the analysis of the percentage inhibition by test compounds. The current amplitudes were measured by subtracting metric A from metric B (see FIG. 2) with inhibition calculated by normalising to the vehicle addition (0.3% DMSO) and full inhibition by 3 mM CsCl in the same well. […] In total, compound was applied to the well for 600 seconds.

A word on the IC50: it is the concentration that inhibits the measured activity by half. `Cc1ccc(C#N)nc1C[C@H](N)c1ncccc1-n1ncc2cc(F)ccc21` [Example 47]: the IC50 is 0.63 µM in assay [1] and 10 µM in assay [2].

For the molecule `Cc1ccc(C#N)nc1C[C@H](N)c1ncccc1-n1ncc2cc(Br)ccc21` [Example 36, hydrochloride], the IC50 in assay [1] came to 0.77 µM; in assay [2], 4.7 µM.

For `N#Cc1ccc(F)c(C[C@H](N)c2ncccc2-n2ncc3cc(F)ccc32)n1` [Example 38, (S)-6-{2-Amino-2-[3-(5-fluoro-1H-indazol-1-yl)pyridine-2-yl]ethyl}-5-fluoropyridine-2-carbonitrile], the values for the concentration for half-maximal inhibition (IC50) in assay [1] and in assay [2] were 0.79 µM and above 30 µM, respectively.

Take `Cc1ccc2c(cnn2-c2cccnc2[C@@H](N)Cc2nc(C#N)ccc2F)c1` [Example 39, (S)-6-{2-Amino-2-[3-(5-methyl-1H-indazol-1-yl)pyridine-2-yl]-ethyl}-5-fluoropyr-idine-2-carbonitrile hydrochloride]: the IC50 in assay [1] turned out to be 0.31 µM; in assay [2], 3.7 µM.

With `N#Cc1ccc(F)c(C[C@H](N)c2ncccc2-n2ncc3cc(Cl)ccc32)n1` [Example 45, (S)-6-{2-Amino-2-[3-(5-chloro-1H-indazol-1-yl)pyridine-2-yl-ethyl}-5-fluoropyr-idine-2-carbonitrile hydrochloride], the figures for the IC50 in assay [1] and in assay [2] were 0.6 µM and 3.4 µM, respectively.

For the molecule `CS(=O)(=O)c1ccc(F)c(C[C@H](N)c2ncccc2-n2ncc3cc(Br)ccc32)n1` [Example 48, (S)-1-[3-(5-Bromo-1H-indazole-1-yl)pyridine-2-yl]-2-(3-fluoro-6-methylsulfonylpyr-idine-2-yl)ethan-1-amine hydrochloride], the IC50 was determined as 2.1 µM in assay [1] and 11.1 µM in assay [2].

For the molecule `Cc1cccnc1C[C@H](N)c1ncccc1-n1ncc2cc(Br)ccc21` [Example 30, (S)-1-[3-(5-Bromo-1H-indazole-1-yl)pyridine-2-yl]-2-(3-methylpyr-idine-2-yl)ethan-1-amine hydrochloride], the IC50 was found to be 0.9 µM in assay [1] and 22.5 µM in assay [2].

Consider `Cc1ccc(C#N)nc1C[C@H](N)c1ncccc1-n1ncc2cc(Cl)ccc21` [Example 35, (S)-6-{2-Amino-2-[3-(5-chloro-1H-indazol-1-yl)pyridine-2-yl]-ethyl}-5-methylpyr-idine-2-carbonitrile], for which the IC50 amounted to 0.46 µM in assay [1] and 4.3 µM in assay [2].

Turning to `CS(=O)(=O)c1ccc(F)c(C[C@H](N)c2ncccc2-n2ncc3cc(Cl)ccc32)n1` [Example 41, (S)-1-[3-(5-Chloro-1H-indazole-1-yl)-pyridine-2-yl]-2-(3-fluoro-6-methylsulfon-ylpyridine-2-yl)ethan-1-amine hydrochloride], the IC50 in assay [1] was 3.9 µM; in assay [2], above 30 µM.

Values taken from US20240174639A1, “PYRIDINE DERIVATIVES USEFUL AS HCN2 MODULATORS” (King's College London, priority 2021, published 2024).
